“Also recorded” adds a separate entry of the source. Read-outs that look alike come from different tables or passages of the source.
Columns and labels:
purified human PMN MMP-8 = purified human PMN MMP-8 (Homo sapiens (Human), UniProt P22894); experiment: MMP-8 inhibition, synthetic octapeptide substrate, tripeptide product by HPLC; assay type: biochemical
[1] = target: MMP-9 (human leukocyte gelatinase) (Homo sapiens (Human), UniProt P14780); experiment: MMP-9 inhibition in vitro, octapeptide/HPLC; assay type: biochemical
Excerpt: In contrast all three chemically-modified curcumins at 100 μm final concentration inhibited gelatinase activity by 68-100% (FIG. 6 and Table 6).

[2] = target: chromatographically-purified MMP-2 (Homo sapiens (Human), UniProt P08253); experiment: MMP-2 inhibition in vitro, octapeptide/HPLC; assay type: biochemical; settings: for Ratio = IC50 test compound/IC50 standard, MMP-2: standard 1,10-phenanthroline
[3] = target: chromatographically-purified MMP-13 (Collagenase-3) (Homo sapiens (Human), UniProt P45452); experiment: MMP-13 inhibition in vitro, octapeptide/HPLC; assay type: biochemical; settings: for Ratio = IC50 test compound/IC50 standard, MMP-13: standard 1,10-phenanthroline
[4] = Solubility in aqueous solutions; assay type: physicochemical
[5] = tested on: neonatal rat ventricular myocytes; experiment: Hydrogen peroxide induced LDH release; assay type: cell-based; settings: 10 μM, H2O2 100 μM
Method: Test compounds and concentrations (MMP inhibitors, MMPi): • 1. GM-6001: 10 μM • 2. ONO-4817: 10 μM • 3.
Neonatal rat ventricular myocytes, serum starved for 24 h, were treated with the inhibitors 1 h prior to the addition of 100 μM of hydrogen peroxide (Sigma). LDH release in the conditioned media was quantified using CytoTox-ONE Homogeneous Membrane Integrity Assay reagent (Promega) at the indicated time points.

[6] = Extractability/recovery from human serum by HPLC
Method: Detection of compounds & extractability/recovery from human serum (for future use to determine in vivo pharmacokinetics) was achieved using HPLC. The HPLC detection method is briefly described herein. 50 μl of buffer or human serum containing 166.67 μM, 16.67 μM and 1.67 μM of the compounds were incubated with 100 μl pre-cooled (−10° C.) extraction solvent containing CAN-MeOH-0.5M oxalic acid at a ratio of 60:30:10. The mixture was vortexed and centrifuged at 10,000 rpm for 10 min. The supernatant was then aliquoted and injected into an HPLC for analysis. Stock solutions of the compounds were made 100× in DMSO, then further diluted with buffer or serum.

human monocytes [7] = experiment: Cytotoxicity in human monocytes (MTS); assay type: cell-based
Method: (§1) Briefly, human peripheral blood monocytes (HMs) were isolated from a leukocyte concentrate by density gradient centrifugation (Lymphoprep) and the isolated HMs cultured (2 h, 37° C.) to remove non-adherent cells. The adherent HMs were cultured for 18 h (1×10^6 cells/well, 24-well plates)±endotoxin (LPS)±different compounds dissolved in DMSO (the final concentration of DMSO in the RPMI serum-free culture media with Pen./Strep. antibiotics was no greater than 0.5%). After incubation, the proinflammatory cytokines, TNFα, IL-1β, MCP-1 and IL-6 were measured in the conditioned media by ELISA and cytotoxicity was assessed by measuring the absorbance (490 nm) of formazan produced by reduction of MTS. The HMs alone ±0.1-0.5% DMSO produced minimal levels of these pro-inflammatory cytokines. However, addition of 100 ng/ml or 10 μg/ml of LPS both dramatically stimulated cytokine production.

TNF-α = TNF-α production by LPS-stimulated monocytes (ELISA); assay type: cell-based, human
Method: as §1

human monocytes [8] = experiment: Cytotoxicity in human monocytes (MTS); assay type: cell-based; remark: listed apart in the source
MMP-2 = MMP-2 (Mus musculus (Mouse), UniProt P33434); settings: 15 μM; cited from earlier work

Chain of MMP-9 (human leukocyte gelatinase) (P14780 94-707): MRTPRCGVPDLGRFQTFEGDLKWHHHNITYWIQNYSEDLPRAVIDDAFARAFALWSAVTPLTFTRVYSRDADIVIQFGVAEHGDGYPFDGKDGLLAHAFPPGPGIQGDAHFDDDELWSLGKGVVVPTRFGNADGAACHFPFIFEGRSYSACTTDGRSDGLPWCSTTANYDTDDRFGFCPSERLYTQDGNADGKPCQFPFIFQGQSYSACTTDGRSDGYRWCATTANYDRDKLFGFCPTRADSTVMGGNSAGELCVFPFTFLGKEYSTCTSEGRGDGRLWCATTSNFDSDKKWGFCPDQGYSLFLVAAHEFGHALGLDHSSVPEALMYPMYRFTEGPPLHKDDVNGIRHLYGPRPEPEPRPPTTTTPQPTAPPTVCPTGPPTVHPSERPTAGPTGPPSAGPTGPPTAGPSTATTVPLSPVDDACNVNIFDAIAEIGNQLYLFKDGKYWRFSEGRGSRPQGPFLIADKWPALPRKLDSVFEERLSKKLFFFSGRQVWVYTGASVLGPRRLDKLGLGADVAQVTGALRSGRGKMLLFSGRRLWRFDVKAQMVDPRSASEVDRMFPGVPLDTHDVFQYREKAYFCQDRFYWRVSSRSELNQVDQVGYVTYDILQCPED
Chain of chromatographically-purified MMP-2 (P08253 110-660): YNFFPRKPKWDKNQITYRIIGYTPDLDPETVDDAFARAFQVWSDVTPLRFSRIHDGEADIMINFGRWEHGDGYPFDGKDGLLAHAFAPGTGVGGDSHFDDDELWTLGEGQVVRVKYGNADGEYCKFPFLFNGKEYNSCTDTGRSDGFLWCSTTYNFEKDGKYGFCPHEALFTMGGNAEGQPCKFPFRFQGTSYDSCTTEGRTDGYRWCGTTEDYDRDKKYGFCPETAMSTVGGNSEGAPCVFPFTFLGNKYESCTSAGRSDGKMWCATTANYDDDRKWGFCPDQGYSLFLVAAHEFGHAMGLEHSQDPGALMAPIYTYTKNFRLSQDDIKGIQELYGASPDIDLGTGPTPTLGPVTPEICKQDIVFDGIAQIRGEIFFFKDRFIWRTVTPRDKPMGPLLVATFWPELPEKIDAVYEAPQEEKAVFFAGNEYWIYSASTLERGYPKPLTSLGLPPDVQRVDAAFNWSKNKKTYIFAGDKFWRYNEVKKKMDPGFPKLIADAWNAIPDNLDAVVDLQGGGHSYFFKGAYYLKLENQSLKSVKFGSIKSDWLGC
Chain of purified human PMN MMP-8 (P22894 101-467): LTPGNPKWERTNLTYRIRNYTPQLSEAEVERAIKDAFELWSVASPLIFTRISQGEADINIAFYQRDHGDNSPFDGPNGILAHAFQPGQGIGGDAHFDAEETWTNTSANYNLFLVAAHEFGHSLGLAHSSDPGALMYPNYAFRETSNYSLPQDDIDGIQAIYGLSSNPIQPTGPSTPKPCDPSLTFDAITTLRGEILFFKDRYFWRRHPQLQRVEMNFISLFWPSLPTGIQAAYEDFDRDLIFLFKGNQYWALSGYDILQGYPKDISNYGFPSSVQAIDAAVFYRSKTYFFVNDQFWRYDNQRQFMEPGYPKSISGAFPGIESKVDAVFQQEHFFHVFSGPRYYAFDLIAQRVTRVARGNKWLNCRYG

| SMILES | IC50 [1] [µM] | IC50 ([2]; read-out: IC50 MMP-2) [µM] | Ratio = IC50 test compound/IC50 standard, MMP-2 [2] | IC50 [3] [µM] | Ratio = IC50 test compound/IC50 standard, MMP-13 [3] | other results |
| --- | --- | --- | --- | --- | --- | --- |
| c1cnc2c(c1)ccc1cccnc12 [1,10-O-phenanthroline, reference compound] | 9 | 70 | 1.0 | 4 | 1.0 | IC50 (purified human PMN MMP-8; Table 1 experiments, read-out: IC50 against purified hMMP-8): 10 to 35 µM; Ratio of each IC50 to IC50 of 1,10-O-phenanthroline (purified human PMN MMP-8; hMMP-8): 1 = 35 μM 1 = 10 μM |
| COC(=O)C(C(=O)/C=C/c1ccccc1)C(=O)/C=C/c1ccccc1 [Compound 2] |  |  |  |  |  | IC50 against purified hMMP-8 (purified human PMN MMP-8; Table 1 experiments): did not show a dose response; also recorded: No dose response |
| COC(=O)C(C(=O)/C=C/c1ccc(O)cc1)C(=O)/C=C/c1ccc(O)cc1 [Compound 3, 1,7-Bis(4-hydroxyphenyl)-4-methoxycarbonylhepta-1E,6E-dien-3,5-dione] | 6 | 70 | 1.0 | 8 | 2.0 | IC50 (purified human PMN MMP-8; Example 7 experiment, 1 mM Ca++, 37° C., read-out: IC50, human neutrophil collagenase (MMP-8)): ≤ 5 µM; Solubility in aqueous solutions (comparative) [4]: more soluble in aqueous solutions than compound 1 |
| COc1cc(/C=C/C(=O)CC(=O)/C=C/c2ccc(N(C)C)cc2)ccc1O [Compound 4] | 17 | > 250 | >3.6 | 250 | 62.5 |  |
| COc1cc(/C=C/C(=O)C(C(=O)/C=C/c2ccc(O)c(OC)c2)C(=O)Nc2ccccc2)ccc1O [Compound 6, 1,7-Bis(4-hydroxy-3-methoxyphenyl)-4-N-phenylaminocarbonylhepta-1E,6E-dien-3,5-dione] |  | 85 |  |  |  |  |
| O=C(/C=C/c1ccc(O)cc1)C(C(=O)/C=C/c1ccc(O)cc1)C(=O)Nc1ccccc1 [Compound 7, 1,7-Bis(4-hydroxyphenyl)-4-N-phenylaminocarbonylhepta-1E,6E-dien-3,5-dione] |  | 125 | 1.8 | < 1 | <0.3 |  |
| CN(C)c1ccc(/C=C/C(=O)C(C(=O)/C=C/c2ccc(N(C)C)cc2)C(=O)Nc2ccccc2)cc1 [Compound 8, 1,7-Bis(4-dimethylaminophenyl)-4-N-phenylaminocarbonylhepta-1E,6E-dien-3,5-dione] |  |  |  | 45 | 11.3 | IC50 MMP-2 (μM) [2]: Unmeasurable* |
| CNC(=O)[C@H](Cc1c[nH]c2ccccc12)NC(=O)[C@@H](CC(=O)NO)CC(C)C [GM-6001, reference compound] |  |  |  |  |  | Effect on LDH release [5]: did not affect LDH release |
| CCOCOC[C@H](C[C@H](C)C(=O)NO)NC(=O)c1ccc(Oc2ccccc2)cc1 [ONO-4817, reference compound] |  |  |  |  |  | Effect on LDH release [5]: did not affect LDH release |
| COc1cc(/C=C/C(=O)CC(=O)/C=C/c2ccc(O)c(OC)c2)ccc1O [curcumin] | 29 |  |  |  |  | Recovery from human serum ([6]; HPLC after solvent extraction): 83-94%; recovery ([6]; human, human serum): 83 to 94%; Cytotoxicity Monocytes @ 18 h incubation (human monocytes [7]; 10 uM): 10 uM- 0%; Cytotoxicity Monocytes @ 18 h incubation (human monocytes [7]; 20 uM): 20 uM- 20%; Cytotoxicity Monocytes @ 18 h incubation (human monocytes [7]; 50 uM): 50 uM- 77%; Cytotoxicity in human monocyte culture (human monocytes [7]; 50 and 100 μM): significant cytotoxicity; Decrease of TNFα production by endotoxin-stimulated human monocytes (TNF-α; 10 and 20 μM): no effect; Decrease of TNFα production by endotoxin-stimulated human monocytes (TNF-α; 50 and 100 μM): 80-90%; Maximum Inhibition At 100 μM compound, MMP-9 ([1]; 100 μM): 58%; IC50 [2]: 85 µM; Solubility in aqueous solutions (comparative) [4]: insoluble; Cytotoxicity Monocytes @ 5 h incubation (human monocytes [8]; 10 uM): 10 uM- 0%; Cytotoxicity Monocytes @ 5 h incubation (human monocytes [8]; 20 uM): 20 uM- 20%; Cytotoxicity Monocytes @ 5 h incubation (human monocytes [8]; 50 uM): 50 uM- 50%; Effect on MMP-2 activity (MMP-2): significant inhibitory effect |

Source: patent US9187406B2 (The Research Foundation of State University of New York, priority 2009, dated 2015)
